This note sets out measurements from ChEMBL document CHEMBL6134786, “Design and synthesis of novel 8-(azaindolyl)-benzoazepinones as potent and selective ROCK inhibitors” (RSC Med Chem, 2024).

A short description of one series: cells. The settings on record: Homo sapiens, Pulmonary Artery Smooth Muscle Cells, read-out: pEC50 (converted).
Series [1] in a line: Apparent permeability across apical to basolateral side in human Caco-2 cells. The series is classed as ADME, cell-based. On the technique in general: Caco-2 cells form a polarised layer with tight junctions and transporters.
The nature of series [2]: Metabolic stability in rat microsomes assessed as half life. In kind it is ADME, Microsome.
A short description of series [3]: Kinetic solubility of the compound in PBS at pH 7.2. The series is classed as physicochemical. The settings on record: read-out: Kinetic_solubility.

Each structure is given as a SMILES string. ≈ marks a conversion by molar mass, not a printed value.

`O=C1Cc2cc(-c3cn[nH]c3)ccc2CCN1c1ccccc1`: the EC50 in the series “cells” was 398 nM.
Take `O=C1Cc2cc(-c3ccnc4[nH]ccc34)ccc2CCN1c1ccccc1`: in series [1], the Papp A→B (as a rule, the apparent permeability from the apical to the basolateral side of a cell layer) was found to be 26.9 ×10⁻⁶ cm/s. In addition, in “cells”, the EC50 is 12.6 nM. For the same compound, the half-life – broadly, how long it takes for the measured level to halve – in series [2] worked out at 18 min. Further, the solubility kinetic in series [3] was under 5 µM.
With `O=C1Cc2cc(-c3ncnc4[nH]ccc34)ccc2CCN1c1ccccc1`, the EC50 in “cells” was 50.1 nM.
For `COc1cccc(N2CCc3ccc(-c4ccnc5[nH]ccc45)cc3CC2=O)c1`, the EC50 in “cells” is 31.6 nM.
For the compound `CN1CCN(CCCOc2cccc(N3CCc4ccc(-c5ccnc6[nH]ccc56)cc4CC3=O)c2)CC1`, the apical-to-basolateral permeability (Papp A→B) in series [1] is 5.6 ×10⁻⁶ cm/s. Besides, the EC50 in “cells” is 5.01 nM. In series [2], the half-life was determined as 8.4 min.
For `O=C1CCc2ccc(-c3ccnc4[nH]ccc34)cc2CN1c1ccccc1`, in series [3], the solubility kinetic amounted to 131 µM (≈ 46.3 µg/mL).
For `Nc1cc(-c2ccc3c(c2)CC(=O)N(c2ccccc2)CC3)ccn1`, the EC50 in the series “cells” is 316 nM.
